Experiments:
[1] = Storage stability of Tacrolimus MPEG-hexPLA micelle formulations at 4° C.; format: physicochemical; settings: stored at 4° C.
Source text: The non-incorporated active compound can be removed by a simple filtration.

[2] = Incorporation of Tacrolimus into MPEG-hexPLA polymer micelles; format: physicochemical; settings: loadings up to 300 mg Tacrolimus per gram MPEGhexPLA; aqueous micelle solution, acetone/water sonication protocol
Description: Objective is the evaluation of the methoxypoly(ethylene glycol)-hexyl-substituted poly(lactic acid) [MPEG-hexPLA] polymer micelles' potential to incorporate and solubilize Tacrolimus.
The incorporation studies were carried out by a standard formulation protocol. Briefly, a defined amount of Tacrolimus was dissolved in acetone and added dropwise under sonication into water, followed by evaporation of the organic solvent and equilibration of the micelle solution overnight.
As it can be seen, for loadings up to 300 mg Tacrolimus per gram MPEGhexPLA, loading efficiencies higher than 70% could be obtained by this simple procedure. FIG. 2 presents the corresponding concentrations of Tacrolimus in the aqueous solution. It has to be noted, that these solutions can be further concentrated by simple evaporation to obtain higher drug concentrations, and keeping the transparency of the solutions.

[3] = cited from earlier work

Compound: C=CCC1/C=C(\C)CC(C)CC(OC)C2OC(O)(C(=O)C(=O)N3CCCCC3C(=O)OC(/C(C)=C/C3CCC(O)C(OC)C3)C(C)C(O)CC1=O)C(C)CC2OC (stereo not shown) [Tacrolimus, 17-allyl-1,14-dihydroxy-12-[2-(4-hydroxy-3-methoxycyclohexyl)-1-methylvinyl]-23,25-dimethoxy-13,19,21,27-tetramethyl-11,28-dioxa-4-azatricyclo[22.3.1.0^4,9]octacos-18-ene-2,3,10,16-tetraone]
- stability on storage ([1]; formulation with a target of 150 mg/g): best stable formulation
- stability on storage (precipitation) ([1]; higher (than 150 mg/g target) and possibly oversaturated formulations): slight drug precipitation
- loading efficiencies [2]: higher than 70%
- water solubility [3]: poorly water-soluble
